Measurements published in patent publication US20130267494A1, “1,4-OXAZEPANE DERIVATIVES” (priority 2010, published 2013).
Counter-ions that a name gives are not always drawn. Like-named read-outs stand apart in the source and are kept apart here.

Tests used:
[1] = molecular target: T1, human serotonin transporter (Homo sapiens, UniProt P31645); test: Inhibitory action on human serotonin transporter ([3H]-5-hydroxytryptamine uptake in CHO cells); assay type: cell-based; settings: CHO, relative to inhibitory activity of 10 μM Paroxetine as 100%, read-out: inhibitory rate (%); for inhibition at 1 µM: compound 1 μM
T1 construct: expressed in transfected cells
T1 sequence (P31645 whole entry): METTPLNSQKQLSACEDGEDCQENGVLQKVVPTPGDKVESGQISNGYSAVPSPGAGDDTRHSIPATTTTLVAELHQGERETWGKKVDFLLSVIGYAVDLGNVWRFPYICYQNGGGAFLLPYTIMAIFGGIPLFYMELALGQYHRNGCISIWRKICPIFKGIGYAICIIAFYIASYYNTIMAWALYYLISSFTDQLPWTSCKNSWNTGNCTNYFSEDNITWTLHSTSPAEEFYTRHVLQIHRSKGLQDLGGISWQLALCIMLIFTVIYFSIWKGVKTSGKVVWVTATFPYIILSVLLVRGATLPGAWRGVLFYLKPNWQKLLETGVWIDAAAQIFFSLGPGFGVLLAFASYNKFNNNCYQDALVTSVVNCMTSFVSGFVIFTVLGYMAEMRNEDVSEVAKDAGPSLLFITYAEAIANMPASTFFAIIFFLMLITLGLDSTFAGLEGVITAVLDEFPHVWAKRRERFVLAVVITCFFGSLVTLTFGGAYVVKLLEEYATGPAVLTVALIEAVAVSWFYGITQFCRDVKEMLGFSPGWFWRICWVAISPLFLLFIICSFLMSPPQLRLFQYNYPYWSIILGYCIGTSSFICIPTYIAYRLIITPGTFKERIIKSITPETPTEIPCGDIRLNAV
In short: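 CHO-K1 cells stably expressing human SERT, plated overnight, took up [3H]-5-HT (diluted to 200 nM before a 1:10 addition) for 20 min in HEPES-buffered saline with glucose and 0.5% BSA; radioactivity counted by scintillation. Compounds at 10 μM or 1 μM, activity expressed relative to 10 μM paroxetine set as 100%.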

[2] = molecular target: T2, human norepinephrine transporter (Homo sapiens, UniProt P23975); test: Inhibitory action on human norepinephrine transporter ([3H]-norepinephrine uptake in CHO cells); assay type: cell-based; settings: CHO, relative to inhibitory activity of 10 μM DMI as 100%
T2 construct: expressed in transfected cells
T2 sequence (P23975 whole entry): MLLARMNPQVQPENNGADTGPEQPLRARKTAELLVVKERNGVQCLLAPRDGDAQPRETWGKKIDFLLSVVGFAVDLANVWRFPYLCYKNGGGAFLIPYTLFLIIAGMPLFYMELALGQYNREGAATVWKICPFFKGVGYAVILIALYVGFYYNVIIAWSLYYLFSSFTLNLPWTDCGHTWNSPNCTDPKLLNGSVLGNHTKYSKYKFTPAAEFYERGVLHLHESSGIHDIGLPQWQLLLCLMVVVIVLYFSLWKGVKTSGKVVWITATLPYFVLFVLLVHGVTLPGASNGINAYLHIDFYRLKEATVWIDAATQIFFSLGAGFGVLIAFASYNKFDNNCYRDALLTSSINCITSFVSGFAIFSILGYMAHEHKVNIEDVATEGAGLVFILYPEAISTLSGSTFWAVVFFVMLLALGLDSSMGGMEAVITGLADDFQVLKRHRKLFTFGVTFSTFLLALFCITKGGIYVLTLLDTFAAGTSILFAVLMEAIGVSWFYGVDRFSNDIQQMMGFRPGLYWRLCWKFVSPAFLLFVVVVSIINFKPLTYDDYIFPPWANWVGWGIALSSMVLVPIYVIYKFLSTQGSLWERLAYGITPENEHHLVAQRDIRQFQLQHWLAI
In short: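 Stably transfected CHO-K1 cells plated overnight, then given test compound and [3H]-norepinephrine (20 nM final, from 200 nM) in HEPES-buffered saline with 0.5% BSA for 45 min. After PBS washes, retained radioactivity counted by scintillation. Inhibition at 10 μM or 1 μM compound expressed relative to 10 μM DMI as 100%.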

[3] = read-out: inhibitory rate (%), compound 1 μM
[4] = compound 1 μM, read-out: inhibitory rate (%)

SMILES | inhibition at 1 µM [1] [%] | inhibition at 1 µM [2, 4] [%] | inhibition at 10 µM ([1]; compound 10 μM, CHO cells expressing human serotonin transporter) [%] | inhibition at 1 µM [2, 3] [%] | inhibition at 10 µM ([2]; read-out: inhibitory rate (%), compound 10 μM) [%]
CC(=O)NC[C@H]1CNCCO[C@@H]1c1ccc(Cl)c(Cl)c1 (racemic) [Example 6, N-{[(6RS,7SR)-7-(3,4-dichlorophenyl)-1,4-oxazepan-6-yl]methyl}acetamide monohydrochloride] | 84 |  | 98 | 95 | 97
O=c1[nH]c(-c2cccn(C[C@@H]3CNCCO[C@H]3c3ccc(Cl)c(Cl)c3)c2=O)no1 [Example 31, 1-{[(6S,7R)-7-(3,4-dichlorophenyl)-1,4-oxazepan-6-yl]methyl}-3-(5-oxo-4,5-dihydro-1,2,4-oxadiazol-3-yl)pyridin-2(1H)-one monohydrochloride] | 95 | 108 |  |  | 
CC(=O)NC[C@@H]1CNCCO[C@H]1c1ccc(Cl)c(Cl)c1 [Example 32, N-{[(6S,7R)-7-(3,4-dichlorophenyl)-1,4-oxazepan-6-yl]methyl}acetamide 0.5 fumarate] | 84 |  |  | 93 | 
CC(=O)N[C@@H]1CNCCO[C@H]1c1ccc(Cl)c(Cl)c1 [Example 36, N-[(6R,7S)-7-(3,4-dichlorophenyl)-1,4-oxazepan-6-yl]acetamide monofumarate] | 69 |  |  | 101 | 
NS(=O)(=O)N[C@@H]1CNCCO[C@H]1c1ccc(Cl)c(Cl)c1 [Example 37, N-[(6R,7S)-7-(3,4-dichlorophenyl)-1,4-oxazepan-6-yl]sulfamide monohydrochloride] | 71 | 102 |  |  | 
O=c1[nH]c(-c2cccn(C[C@@H]3CNCCO[C@H]3c3ccc(Cl)c(F)c3)c2=O)no1 [Example 43, 1-{[(6S,7R)-7-(4-chloro-3-fluorophenyl)-1,4-oxazepan-6-yl]methyl}-3-(5-oxo-4,5-dihydro-1,2,4-oxadiazol-3-yl)pyridin-2(1H)-one monohydrochloride] | 72 |  |  | 102 | 
O=C(O)c1cccn(C[C@@H]2CNCCO[C@H]2c2ccc(Cl)c(F)c2)c1=O [Example 44, 1-{[(6S,7R)-7-(4-chloro-3-fluorophenyl)-1,4-oxazepan-6-yl]methyl}-2-oxo-1,2-dihydropyridine-3-carboxylic acid monohydrochloride] | 40 | 102 |  |  | 
OC[C@H](O)[C@@H]1OCCNC[C@H]1c1ccc(Cl)c(Cl)c1 [Example 45, (1S)-1-[(6R,7R)-6-(3,4-dichlorophenyl)-1,4-oxazepan-7-yl]ethane-1,2-diol monohydrochloride] | 36 | 105 |  |  | 
O=c1[nH]c(-c2cccnc2O[C@@H]2CNCCO[C@H]2c2ccc(Cl)c(F)c2)no1 [Example 556, 3-(2-{[(6R,7S)-7-(4-chloro-3-fluorophenyl)-1,4-oxazepan-6-yl]oxy}pyridin-3-yl)-1,2,4-oxadiazol-5(4H)-one monohydrochloride] | 77 | 101 |  |  | 
O=c1[nH]c(-c2ccccc2O[C@@H]2CNCCO[C@H]2c2ccc(Cl)c(F)c2)no1 [Example 577, 3-(2-{[(6R, 7S)-7-(4-chloro-3-fluoro-phenyl)-1,4-oxazepan-6-yl]oxy}phenyl)-1,2,4-oxadiazol-5(4H)-one] | 53 | 97 |  |  | 
O=c1[nH]c(-c2ncccc2O[C@@H]2CNCCO[C@H]2c2ccc(Cl)c(F)c2)no1 [Example 584, 3-(3-{[(6R, 7S)-7-(4-chloro-3-fluorophenyl)-1,4-oxazepan-6-yl]oxy}pyridin-2-yl)-1,2,4-oxadiazol-5(4H)-one] | 41 | 107 |  |  | 

The next lines start with results.

inhibition at 1 µM [1] [%] | inhibition at 1 µM [2, 4] [%] | SMILES | inhibition at 10 µM ([1]; compound 10 μM, CHO cells expressing human serotonin transporter) [%] | inhibition at 1 µM [2, 3] [%] | inhibition at 10 µM ([2]; read-out: inhibitory rate (%), compound 10 μM) [%]
92 | 100 | COCC(=O)NC[C@@H]1CNCCO[C@H]1c1ccc(Cl)c(Cl)c1 [Example 33, N-{[(6S,7R)-7-(3,4-dichlorophenyl)-1,4-oxazepan-6-yl]methyl}-2-methoxyacetamide monohydrochloride] |  |  | 
69 | 102 | COCC(=O)NC[C@@H]1CNCCO[C@H]1c1ccc(Cl)c(F)c1 [Example 38, N-{[(6S,7R)-7-(4-chloro-3-fluorophenyl)-1,4-oxazepan-6-yl]methyl}-2-methoxyacetamide monohydrochloride] |  |  | 
58 | 102 | [2H]C([2H])([2H])OCC(=O)NC[C@@H]1CNCCO[C@H]1c1ccc(Cl)c(F)c1 [Example 39, N-{[(6S,7R)-7-(4-chloro-3-fluorophenyl)-1,4-oxazepan-6-yl]methyl}-2-[(^2H3)methyloxy]acetamide monohydrochloride] |  |  | 
80 | 104 | CCOCC(=O)NC[C@@H]1CNCCO[C@H]1c1ccc(Cl)c(F)c1 [Example 40, N-{[(6S,7R)-7-(4-chloro-3-fluorophenyl)-1,4-oxazepan-6-yl]methyl}-2-ethoxyacetamide monohydrochloride] |  |  | 
70 | 101 | CC(C)OCC(=O)NC[C@@H]1CNCCO[C@H]1c1ccc(Cl)c(F)c1 [Example 41, N-{[(6S,7R)-7-(4-chloro-3-fluorophenyl)-1,4-oxazepan-6-yl]methyl}-2-(1-methylethoxy)acetamide monohydrochloride] |  |  | 
